The record followed here is patent publication EP0118120A2, “1,4-Dihydropyridine compound” (priority 1983, dated 1984).

SMILES strings stand for the structures.

For assay [1], the system named is liver disorder induced by carbon tetrachloride. Put plainly: Effect on liver disorder induced by carbon tetrachloride in rats, repeat with 8 weeks old rats (Example 27). The format is in vivo, SLC-Wistar male rats. To be noted: serum 24 hours after CCl4, 200 mg/kg orally x2, rats 8 weeks old. The protocol:
(§1) The effects of the sample compounds to be tested on hepatic disorder were evaluated by determining the levels of GOT, GPT, AlP, and bilirubin, which are known as an indicator of hepatic disorder, in serum, after administering carbon tetrachloride and the sample compounds to SLC-Wistar male rats (9 weeks old and body weight of 210 to 250 g in Tables 1, 3, and 4, and 10 weeks old and body weight of 230 to 260 g in Table 2) as follows.
(§2) Five rats were used in each test group. The sample compound (i.e., each compound listed below) was suspended at a concentration of 40 mg/ml in a 0.1% aqueous solution of Tween-80 (i.e., nonionic surfactant available from Atlas Powder Co., Ltd.). The resultant suspension was orally administered at a dose of 200 mg/kg each at 25 hours and 1 hour before the administration of carbon tetrachloride, except for the control group. For the control group to which only carbon tetrachloride was administered in the evaluation test, a 0.1% aqueous Tween-80 was orally administered at a dose of 5 ml/kg in the same manner.
(§3) Carbon tetrachloride was intraperiotoneally administered as a 10% olive oil solution at a dose of 5 ml/kg (0.5 ml/kg in terms of CC14) one hour after the final administration of the sample compound. For the control (normal) group, olive oil was intraperitoneally administered in the same manner at a dose of 5 ml/kg.
(§4) Blood samples were collected from the carotid artery under pentobarbital anesthesia, 24 hours after the administration of carbon tetrachloride. The rats were fasted for 18 to 22 hours before collecting the blood samples.
(§5) The determination of GOT and GPT in serum was carried out according to a UV method, the determination of AlP was carried cut according to Bessy-Lowry method, and the determination of bilirubin was carried out according to a diazo method.
(§6) Effect of the compounds according to the present invention on liver disorder induced by carbon tetrachloride
The evaluation tests of Example 26 were repeated except that SLC-Wistar male rats (8 weeks old and body weight of 170 to 210 g) were used.

For assay [2] the test system is unchanged. The assay is described as follows: Effect on liver disorder induced by carbon tetrachloride in rats, serum GOT, GPT, AlP, bilirubin (Example 26). It is filed as in vivo, SLC-Wistar male rats. The method, then: as §6, §1, §2, §3, §4, §5
Setting [3] is: Table 5, 170 to 210 g, CCl4 only 27875 ± 3628, normal 78 ± 3.
[4] abbreviates: Table 5, CCl4 only 0.55 ± 0.16, normal 0.10 ± 0.00.
Where [5] appears, read: Table 5, CCl4 only 41.3 ± 2.5, normal 25.7 ± 0.4.
Setting [6] is: Table 5, CCl4 only 12984 ± 1465, normal 30 ± 3.
Where [7] appears, read: Table 3, serum 24 hours after CCl4, 200 mg/kg orally x2, rats 9 weeks old, CCl4 only 0.38 ± 0.06, normal 0.22 ± 0.04.
[8] abbreviates: Table 3, serum 24 hours after CCl4, 200 mg/kg orally x2, rats 9 weeks old, CCl4 only 34.4 ± 2.6, normal 27.0 ± 0.5.
Setting [9] is: Table 3, serum 24 hours after CCl4, 200 mg/kg orally x2, rats 9 weeks old, CCl4 only 9188 ± 1815, normal 30 ± 2.
Setting [10] is: Table 3, serum 24 hours after CCl4, 200 mg/kg orally x2, rats 9 weeks old, CCl4 only 13189 ± 2205, normal 81 ± 3.
Where [11] appears, read: Table 4, serum 24 hours after CCl4, 200 mg/kg orally x2, rats 9 weeks old, CCl4 only 0.38 ± 0.04, normal 0.10 ± 0.00.
[12] abbreviates: Table 4, serum 24 hours after CCl4, 200 mg/kg orally x2, rats 9 weeks old, CCl4 only 35.0 ± 2.0, normal 24.4 ± 0.7.
The mark [13] stands for this setting: Table 4, serum 24 hours after CCl4, 200 mg/kg orally x2, rats 9 weeks old, CCl4 only 10523 ± 2313, normal 31 ± 3.
The mark [14] stands for this setting: Table 4, serum 24 hours after CCl4, 200 mg/kg orally x2, rats 9 weeks old, CCl4 only 17704 ± 4140, normal 76 ± 4.
[15] abbreviates: Table 1, serum 24 hours after CCl4 0.5 ml/kg i.p., compound 200 mg/kg orally 25 hours and 1 hour before CCl4, rats 9 weeks old, CCl4 only 17327 ± 2336, normal 76 ± 1.
Setting [16] is: Table 1, serum 24 hours after CCl4, 200 mg/kg orally x2, rats 9 weeks old, CCl4 only 0.62 ± 0.30, normal 0.10 ± 0.00.
The mark [17] stands for this setting: Table 1, serum 24 hours after CCl4, 200 mg/kg orally x2, rats 9 weeks old, CCl4 only 35.5 ± 2.5, normal 23.6 ± 0.4.
Where [18] appears, read: Table 1, serum 24 hours after CCl4, 200 mg/kg orally x2, rats 9 weeks old, CCl4 only 10496 ± 1221, normal 31 ± 2.

For `COCOC(=O)C1=C(C)N(COC)C(C)=C(C(=O)OCOC)C1C1=COCCO1` [Sample Compound S, bis(methoxymethyl) 4-[2-(5,6-dihydro-p-dioxinyl)]-1-methoxymethyl-2,6-dimethyl-1,4-dihydropyridine-3,5-dicarboxylate], in assay [1] (setting [3]), the GOT is 461 ± 162 K.U. This compound registered a Bilirubin in assay [1] (setting [4]) of 0.10 ± 0.00 mg/dL. This compound also showed an AlP in assay [1] (setting [5]) of 26.3 ± 0.8 K-AU. Moreover, the GPT in assay [1] (setting [6]) is reported as 313 ± 120 K.U.
In assay [2] (setting [7]), `CC(=O)C1=C(C)NC(C)=C(C(C)=O)C1C1=CSCCS1` [Sample Compound Q, 3,5-diacetyl-4-[2-(5,6-dihydro-1,4-dithiinyl)]-2,6-dimethyl-1,4-dihydropyridine] yielded a Bilirubin of 0.26 ± 0.02 mg/dL. The compound further yielded an AlP in assay [2] (setting [8]) of 29.8 ± 1.3 K-AU. The same compound returned a GPT in assay [2] (setting [9]) of 1891 ± 357 K.U. In addition, the GOT in assay [2] (setting [10]) turned out to be 2583 ± 540 K.U.
In assay [2] (setting [11]), `COCCOC(=O)C1=C(C)NC(C)=C(C(C)=O)C1C1=COCCO1` (stereo not shown) [Sample Compound N, 2-methoxyethyl 5-acetyl-4-[2-(5,6-dihydro-p-dioxinyl)]-2,6-dimethyl-1,4-dihydropyridine-3-carboxylate] came in with a Bilirubin of 0.18 ± 0.02 mg/dL. Moreover, the AlP in assay [2] (setting [12]) worked out at 28.5 ± 1.7 K-AU. Moreover, the GPT in assay [2] (setting [13]) was determined as 2860 ± 858 K.U. Further, the GOT in assay [2] (setting [14]) amounted to 3430 ± 922 K.U.
In turn, `COC(=O)C1=C(C)NC(C)=C(C(=O)OC(C)C)C1C1=COCCO1` (stereo not shown) [Sample Compound K, isopropyl methyl 4-[2-(5,6-dihydro-p-dioximyl)]-2,6-dimethyl-1,4-dihydropyridine-3,5-dicarboxylate] registered a Bilirubin in assay [2] (setting [11]) of 0.24 ± 0.02 mg/dL. Further, in assay [2] (setting [12]), the AlP came out at 29.6 ± 0.8 K-AU. Besides, in assay [2] (setting [13]), the GPT was 1657 ± 436 K.U. Further, in assay [2] (setting [14]), the GOT is recorded as 2290 ± 619 K.U.
Turning to `COCOC(=O)C1=C(C)NC(C)=C(C(=O)OCOC)C1C1=C(C)OC(C)CO1` (stereo not shown) [Sample Compound U, bis (methcxymethyl) 2,6-dimethyl-4-[2-(3,5-dimethyl-5,6-dihydro-p-dioxinyl)]-1,4-dihydropyridine-3,5-dicarboxylate], in assay [1] (setting [3]), the GOT is 608 ± 214 K.U. Besides, the Bilirubin in assay [1] (setting [4]) was 0.10 ± 0.00 mg/dL. In addition, the AlP in assay [1] (setting [5]) came to 27.0 ± 1.0 K-AU. The GPT in assay [1] (setting [6]) was 384 ± 135 K.U.
`COCC(C)OC(=O)C1=C(C)NC(C)=C(C(=O)OC(C)COC)C1C1=COCCO1` (stereo not shown) [Sample Compound D, bis(1-methyl-2-methoxyethyl) 4-[2-(5,6-dihydro-p-dioxinyl)]-2,6-dimethyl-l,4-dihydropyridine-3,5-dicarboxylate]: the GOT in assay [2] (setting [15]) was 2572 ± 518 K.U. Further, the Bilirubin in assay [2] (setting [16]) was determined as 0.20 ± 0.00 mg/dL. In assay [2] (setting [17]), the AlP is given as 31.0 ± 1.5 K-AU. The compound further showed a GPT in assay [2] (setting [18]) of 2050 ± 419 K.U.
As to `CC(=O)C1=C(C)NC(C)=C(C(C)=O)C1C1=COCCC1` [Sample Compound P, 3,5-diacetyl-4-[5-(3,4-dihydro-2H-pyranyl)]-2,6-dimethyl-1,4-dihydropyridine], the Bilirubin in assay [2] (setting [7]) came to 0.32 ± 0.02 mg/dL. This compound had an AlP in assay [2] (setting [8]) of 35.1 ± 1.4 K-AU. Also, the GPT in assay [2] (setting [9]) stood at 616 ± 193 K.U. This compound displayed a GOT in assay [2] (setting [10]) of 899 ± 252 K.U.
`COC(=O)C1=C(C)NC(C)=C(C(C)=O)C1C1=COCCO1` (stereo not shown) [Sample Compound M, methyl 5-acetyl-4-[2-(5,6-dihydro-p-dioxinyl)]-2,6-dimethyl-l,4-dihydropyridine-3-carboxylate] displayed a Bilirubin in assay [2] (setting [11]) of 0.20 ± 0.00 mg/dL. In assay [2] (setting [12]), this compound returned an AlP of 29.1 ± 1.1 K-AU. Moreover, the GPT in assay [2] (setting [13]) was 428 ± 88 K.U. Also, in assay [2] (setting [14]), the GOT is 807 + 176 K.U.
In assay [2] (setting [15]), `CC(=O)C1=C(C)NC(C)=C(C#N)C1C1=COCCO1` (stereo not shown) [Sample Compound B, 3-acetyl-5-cyano-4-[2-(5,6-dihydro-p-dioxinyl)]-2,6-dimethyl-l,4-dihydropyridine] displayed a GOT of 1604 ± 569 K.U. In assay [2] (setting [16]), this compound returned a Bilirubin of 0.20 ± 0.00 mg/dL. Besides, in assay [2] (setting [17]), the AlP amounted to 34.1 ± 3.4 K-AU. The GPT in assay [2] (setting [18]) is on record as 1023 ± 368 K.U.
Turning to `COC(=O)C1=C(C)NC(C)=C(C#N)C1C1=COCCO1` (stereo not shown) [Sample Compound C, methyl 5-cyano-4-[2-(5,6-dihydro-p-dioxinyl)]-2,6-dimethyl-1,4-dihydropyridine-3-carboxylate], in assay [2] (Table 2, serum 24 hours after CCl4, 200 mg/kg orally x2, rats 10 weeks old, 230 to 260 g, CCl4 only 20701 ± 2821, normal 89 ± 12), the GOT was found to be 1447 ± 313 K.U. The Bilirubin in assay [2] (Table 2, serum 24 hours after CCl4, 200 mg/kg orally x2, rats 10 weeks old, CCl4 only 0.40 ± 0.09, normal 0.10 ± 0.00) is 0.20 ± 0.00 mg/dL. Also, in assay [2] (Table 2, serum 24 hours after CCl4, 200 mg/kg orally x2, rats 10 weeks old, CCl4 only 32.3 ± 2.8, normal 22.7 ± 0.6), the AlP stood at 31.7 ± 3.2 K-AU. The compound further yielded a GPT in assay [2] (Table 2, serum 24 hours after CCl4, 200 mg/kg orally x2, rats 10 weeks old, CCl4 only 11034 ± 1354, normal 41 ± 3) of 912 ± 198 K.U.
Consider `CC1=C(C(=O)OC(C)C)C(C2=COCCO2)C(C(=O)OC(C)C)=C(C)N1` [Sample Compound G], for which the Bilirubin in assay [2] (setting [11]) is 0.22 ± 0.02 mg/dL. This compound also registered an AlP in assay [2] (setting [12]) of 31.5 ± 1.2 K-AU. The compound further registered a GPT in assay [2] (setting [13]) of 2994 ± 638 K.U. The same compound registered a GOT in assay [2] (setting [14]) of 3482 ± 707 K.U.
`COC(=O)C1=C(C)NC(C)=C(C(=O)OC)C1C1=C(C)OC(C)CO1` (stereo not shown) [Sample Compound T, dimethyl 2,6-dimethyl-4-[2-(3,5-dimethyl-5,6-dihydro-p-dioxinyl)] -1,4-dihydropyridine-3,5-dicarbcxylate] yielded a GOT in assay [1] (setting [3]) of 5538 ± 954 K.U. This compound also registered a Bilirubin in assay [1] (setting [4]) of 0.25 ± 0.03 mg/dL. This compound also returned an AlP in assay [1] (setting [5]) of 34.4 ± 1.7 K-AU. This compound registered a GPT in assay [1] (setting [6]) of 4156 ± 196 K.U.
Turning to `CC(=O)C1=C(C)NC(C)=C(C(C)=O)C1C1=C(C)OCCO1` [Sample Compound W, 3,5-diacetyl-2,6-dimethyl-4-[2-(3-methyl-5,6-dihydro-p-dioxinyl)]-1,4-dihydropyridine], the Bilirubin in assay [1] (Table 6, CCl4 only 0.50 ± 0.08, normal 0.12 ± 0.02) turned out to be 0.20 ± 0.00 mg/dL. The same compound yielded an AlP in assay [1] (Table 6, CCl4 only 52.5 ± 2.2, normal 36.3 ± 1.6) of 49.5 ± 3.0 K-AU. In addition, the GPT in assay [1] (Table 6, CCl4 only 12606 ± 1688, normal 39 ± 4) is 805 ± 195 K.U. In addition, the GOT in assay [1] (Table 6, CCl4 only 23424 ± 3360, normal 79 ± 2) was 1194 ± 234 K.U.
